Results taken from ChEMBL document CHEMBL1201861, “Genomics of Drug Sensitity in Cancer screening data, Wellcome Trust Sanger Institute”.

Assays:
Test in all cases: cells
HCT-116 = type: functional, cell-based, Homo sapiens; details: Homo sapiens, HCT-116
Description: SANGER: Inhibition of human HCT-116 cell growth in a cell viability assay.

EM-2 = type: functional, cell-based; details: Homo sapiens;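 also: growth inhibition of EM-2 cells, read out with a cell viability assay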
Description: SANGER: Inhibition of human EM-2 cell growth in a cell viability assay.

LNCaP-Clone-FGC = type: functional, cell-based, Homo sapiens; details: Homo sapiens, LNCaP-Clone-FGC
Description: SANGER: Inhibition of human LNCaP-Clone-FGC cell growth in a cell viability assay.

RPMI-7951 = type: functional, cell-based, Homo sapiens; details: Homo sapiens, RPMI-7951
Description: SANGER: Inhibition of human RPMI-7951 cell growth in a cell viability assay.

DOHH-2 = type: functional, cell-based; details: Homo sapiens;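 also: growth inhibition of human DOHH-2 cells, read out with a cell viability assay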
Description: SANGER: Inhibition of human DOHH-2 cell growth in a cell viability assay.

HCC1419 = type: functional, cell-based, Homo sapiens; details: Homo sapiens, HCC1419;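 also: growth inhibition of human HCC1419 cells, read out as cell viability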
Description: SANGER: Inhibition of human HCC1419 cell growth in a cell viability assay.

ACHN = type: functional, cell-based, Homo sapiens; details: Homo sapiens, ACHN;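 also: cell viability read-out used to gauge how strongly growth of human ACHN cells is suppressed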
Description: SANGER: Inhibition of human ACHN cell growth in a cell viability assay.

A673 = type: functional, cell-based, Homo sapiens; details: Homo sapiens, A673;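 also: growth inhibition of human A673 cells, read out through a cell viability assay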
Description: SANGER: Inhibition of human A673 cell growth in a cell viability assay.

OCI-AML2 = type: functional, cell-based; details: Homo sapiens;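 also: growth inhibition of OCI-AML2 cells, read out with a cell viability assay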
Description: SANGER: Inhibition of human OCI-AML2 cell growth in a cell viability assay.

HT-3 = type: functional, cell-based, Homo sapiens; details: Homo sapiens, HT-3;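 also: growth inhibition measured with a cell viability readout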
Description: SANGER: Inhibition of human HT-3 cell growth in a cell viability assay.

NTERA-2-cl-D1 = type: functional, cell-based, Homo sapiens; details: Homo sapiens, NTERA-2-cl-D1;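 also: inhibition of cell growth, measured with a cell viability assay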
Description: SANGER: Inhibition of human NTERA-S-cl-D1 cell growth in a cell viability assay.

SF-539 = type: functional, cell-based, Homo sapiens; details: Homo sapiens, SF-539;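 also: Read-out is a cell viability assay, with IC50 reflecting inhibition of cell growth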
Description: SANGER: Inhibition of human SF539 cell growth in a cell viability assay.

CW-2 = type: functional, cell-based, Homo sapiens; details: Homo sapiens, CW-2;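 also: growth inhibition of CW-2 cells, read out by a cell viability assay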
Description: SANGER: Inhibition of human CW-2 cell growth in a cell viability assay.

CAL-54 = type: functional, cell-based, Homo sapiens; details: Homo sapiens, CAL-54;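 also: growth inhibition of CAL-54 cells, read out by a viability measurement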
Description: SANGER: Inhibition of human CAL-54 cell growth in a cell viability assay.

HEC-1 = type: functional, cell-based, Homo sapiens; details: Homo sapiens, HEC-1;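 also: growth inhibition of the cell line, read out with a cell viability assay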
Description: SANGER: Inhibition of human HEC-1 cell growth in a cell viability assay.

BT-20 = type: functional, cell-based, Homo sapiens; details: Homo sapiens, BT-20;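 also: cell viability assay measuring suppression of growth in human BT-20 cells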
Description: SANGER: Inhibition of human BT-20 cell growth in a cell viability assay.

KM12 = type: functional, cell-based, Homo sapiens; details: Homo sapiens, KM12;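 also: KM12 cell growth inhibition, read out with a cell viability assay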
Description: SANGER: Inhibition of human KM12 cell growth in a cell viability assay.

FaDu = type: functional, cell-based, Homo sapiens; details: Homo sapiens, FaDu;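 also: cell viability readout of growth inhibition in FaDu cells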
Description: SANGER: Inhibition of human FADU cell growth in a cell viability assay.

A204 = type: functional, cell-based, Homo sapiens; details: Homo sapiens, A204;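 also: growth inhibition of human A204 cells, read out with a cell viability assay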
Description: SANGER: Inhibition of human A204 cell growth in a cell viability assay.

HO-1-N-1 = type: functional, cell-based, Homo sapiens; details: Homo sapiens, HO-1-N-1;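 also: growth inhibition of human HO-1-N-1 cells, read out with a cell viability assay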
Description: SANGER: Inhibition of human HO-1-N-1 cell growth in a cell viability assay.

MFM-223 = type: functional, cell-based, Homo sapiens; details: Homo sapiens, MFM-223
Description: SANGER: Inhibition of human MFM-223 cell growth in a cell viability assay.

ASPC1 = type: functional, cell-based, Homo sapiens; details: Homo sapiens, ASPC1;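 also: growth inhibition of AsPC-1 cells, read out with a cell viability assay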
Description: SANGER: Inhibition of human AsPC-1 cell growth in a cell viability assay.

BFTC-909 = type: functional, cell-based, Homo sapiens; details: Homo sapiens, BFTC-909
Description: SANGER: Inhibition of human BFTC-909 cell growth in a cell viability assay.

CAS-1 = type: functional, cell-based, Homo sapiens; details: Homo sapiens, CAS-1;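 also: growth inhibition of CAS-1 cells, measured with a cell viability assay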
Description: SANGER: Inhibition of human CAS-1 cell growth in a cell viability assay.

MOLT-4 = type: functional, cell-based; details: Homo sapiens;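 also: growth inhibition of MOLT-4 cells, determined with a cell viability readout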
Description: SANGER: Inhibition of human MOLT-4 cell growth in a cell viability assay.

SK-NEP-1 = type: functional, cell-based; details: Homo sapiens;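 also: growth inhibition of human SK-NEP-1 cells, read out by a cell viability assay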
Description: SANGER: Inhibition of human SK-NEP-1 cell growth in a cell viability assay.

SK-MES-1 = type: functional, cell-based, Homo sapiens; details: Homo sapiens, SK-MES-1;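 also: growth inhibition of human SK-MES-1 cells, read out with a cell viability assay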
Description: SANGER: Inhibition of human SK-MES-1 cell growth in a cell viability assay.

no-10 = type: functional, cell-based, Homo sapiens; details: Homo sapiens;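 also: growth inhibition of no-10 cells, read out with a cell viability assay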
Description: SANGER: Inhibition of human no-10 cell growth in a cell viability assay.

SK-MEL-1 = type: functional, cell-based; details: Homo sapiens;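 also: growth inhibition of human SK-MEL-1 cells, read out by a cell viability assay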
Description: SANGER: Inhibition of human SK-MEL-1 cell growth in a cell viability assay.

C2BBe1 = type: functional, cell-based, Homo sapiens; details: Homo sapiens, C2BBe1;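 also: growth inhibition of C2BBe1 cells, read out through a viability assay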
Description: SANGER: Inhibition of human C2BBe1 cell growth in a cell viability assay.

HCC2218 = type: functional, cell-based; details: Homo sapiens;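 also: cell viability assay read-out, with IC50 given as the concentration that inhibits growth of the cell line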
Description: SANGER: Inhibition of human HCC2218 cell growth in a cell viability assay.

GT3TKB = type: functional, cell-based, Homo sapiens; details: Homo sapiens, GT3TKB;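 also: growth inhibition of the cell line, read out with a cell viability assay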
Description: SANGER: Inhibition of human GT3TKB cell growth in a cell viability assay.

D-336MG = type: functional, cell-based, Homo sapiens; details: Homo sapiens, D-336MG
Description: SANGER: Inhibition of human D-336MG cell growth in a cell viability assay.

SK-MEL-2 = type: functional, cell-based, Homo sapiens; details: Homo sapiens, SK-MEL-2;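 also: growth inhibition of human SK-MEL-2 cells measured with a cell viability assay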
Description: SANGER: Inhibition of human SK-MEL-2 cell growth in a cell viability assay.

SNU-5 = type: functional, cell-based; details: Homo sapiens;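 also: cell viability readout used to measure growth inhibition in human NCI-SNU-5 cells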
Description: SANGER: Inhibition of human NCI-SNU-5 cell growth in a cell viability assay.

HGC-27 = type: functional, cell-based, Homo sapiens; details: Homo sapiens, HGC-27;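 also: growth inhibition of human HGC-27 cells, read out in a cell viability assay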
Description: SANGER: Inhibition of human HGC-27 cell growth in a cell viability assay.

HuP-T3 = type: functional, cell-based, Homo sapiens; details: Homo sapiens, HuP-T3;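 also: HuP-T3 cell growth inhibition, read out with a cell viability assay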
Description: SANGER: Inhibition of human HuP-T3 cell growth in a cell viability assay.

Mo = type: functional, cell-based; details: Homo sapiens
Description: SANGER: Inhibition of human Mo-T cell growth in a cell viability assay.

NCI-H1693 = type: functional, cell-based, Homo sapiens; details: Homo sapiens, NCI-H1693;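 also: growth inhibition of the human cell line, read out with a cell viability assay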
Description: SANGER: Inhibition of human NCI-H1693 cell growth in a cell viability assay.

YAPC = type: functional, cell-based, Homo sapiens; details: Homo sapiens, YAPC;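 also: growth inhibition of YAPC cells, measured with a cell viability assay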
Description: SANGER: Inhibition of human YAPC cell growth in a cell viability assay.

MDA-MB-231 = type: functional, cell-based, Homo sapiens; details: Homo sapiens, MDA-MB-231
Description: SANGER: Inhibition of human MDA-MB-231 cell growth in a cell viability assay.

T98G = type: functional, cell-based, Homo sapiens; details: Homo sapiens, T98G;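 also: growth inhibition of T98G cells, read out by a cell viability assay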
Description: SANGER: Inhibition of human T98G cell growth in a cell viability assay.

DOK = type: functional, cell-based, Homo sapiens; details: Homo sapiens, DOK;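 also: cell viability assay read-out, values reflect inhibition of cell growth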
Description: SANGER: Inhibition of human DOK cell growth in a cell viability assay.

KGN = type: functional, cell-based, Homo sapiens; details: Homo sapiens, KGN;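 also: growth inhibition of KGN cells, read out with a cell viability assay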
Description: SANGER: Inhibition of human KGN cell growth in a cell viability assay.

VM-CUB-1 = type: functional, cell-based; details: Homo sapiens;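 also: cell viability assay measuring growth inhibition of the human VM-CUB-1 cell line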
Description: SANGER: Inhibition of human VM-CUB-1 cell growth in a cell viability assay.

NCI-H2087 = type: functional, cell-based, Homo sapiens; details: Homo sapiens, NCI-H2087;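 also: growth inhibition determined with a cell viability readout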
Description: SANGER: Inhibition of human NCI-H2087 cell growth in a cell viability assay.

EW-3 = type: functional, cell-based; details: Homo sapiens;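 also: cell viability assay read-out, IC50 reflects inhibition of growth of the EW-3 cells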
Description: SANGER: Inhibition of human EW-3 cell growth in a cell viability assay.

LS-123 = type: functional, cell-based, Homo sapiens; details: Homo sapiens, LS-123
Description: SANGER: Inhibition of human LS-123 cell growth in a cell viability assay.

G-402 = type: functional, cell-based, Homo sapiens; details: Homo sapiens, G-402
Description: SANGER: Inhibition of human G-402 cell growth in a cell viability assay.

8305C = type: functional, cell-based, Homo sapiens; details: Homo sapiens, 8305C
Description: SANGER: Inhibition of human 8305C cell growth in a cell viability assay.

LB831-BLC = type: functional, cell-based, Homo sapiens; details: Homo sapiens, LB831-BLC;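 also: growth inhibition of LB831-BLC cells, read out with a cell viability assay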
Description: SANGER: Inhibition of human LB831-BLC cell growth in a cell viability assay.

MC116 = type: functional, cell-based; details: Homo sapiens;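 also: growth inhibition of MC116 cells, read out with a cell viability assay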
Description: SANGER: Inhibition of human MC116 cell growth in a cell viability assay.

CC(=O)O[C@@H]1[C@@H](OC(C)=O)[C@@H](O)[C@H](Oc2c(-c3ccc(O)cc3)oc3cc(O)cc(O)c3c2=O)O[C@H]1C
IC50 (HCT-116): > 10000 nM | IC50 (EM-2): > 10000 nM | IC50 (LNCaP-Clone-FGC): > 10000 nM | IC50 (RPMI-7951): > 10000 nM | IC50 (DOHH-2): > 10000 nM | IC50 (HCC1419): > 10000 nM | IC50 (ACHN): > 10000 nM | IC50 (A673): > 10000 nM | IC50 (OCI-AML2): > 10000 nM | IC50 (HT-3): > 10000 nM | IC50 (NTERA-2-cl-D1): > 10000 nM | IC50 (SF-539): > 10000 nM | IC50 (CW-2): > 10000 nM | IC50 (CAL-54): > 10000 nM | IC50 (HEC-1): > 10000 nM | IC50 (BT-20): > 10000 nM | IC50 (KM12): > 10000 nM | IC50 (FaDu): > 10000 nM | IC50 (A204): > 10000 nM | IC50 (HO-1-N-1): > 10000 nM | IC50 (MFM-223): > 10000 nM | IC50 (ASPC1): > 10000 nM | IC50 (BFTC-909): > 10000 nM | IC50 (CAS-1): > 10000 nM | IC50 (MOLT-4): > 10000 nM | IC50 (SK-NEP-1): > 10000 nM | IC50 (SK-MES-1): > 10000 nM | IC50 (no-10): > 10000 nM | IC50 (SK-MEL-1): 9050 nM | IC50 (C2BBe1): > 10000 nM | IC50 (HCC2218): 3840 nM | IC50 (GT3TKB): > 10000 nM | IC50 (D-336MG): > 10000 nM | IC50 (SK-MEL-2): > 10000 nM | IC50 (SNU-5): > 10000 nM | IC50 (HGC-27): > 10000 nM | IC50 (HuP-T3): > 10000 nM | IC50 (Mo): > 10000 nM | IC50 (NCI-H1693): > 10000 nM | IC50 (YAPC): > 10000 nM | IC50 (MDA-MB-231): > 10000 nM | IC50 (T98G): > 10000 nM | IC50 (DOK): > 10000 nM | IC50 (KGN): > 10000 nM | IC50 (VM-CUB-1): > 10000 nM | IC50 (NCI-H2087): > 10000 nM | IC50 (EW-3): > 10000 nM | IC50 (LS-123): > 10000 nM | IC50 (G-402): > 10000 nM | IC50 (8305C): > 10000 nM | IC50 (LB831-BLC): > 10000 nM | IC50 (MC116): > 10000 nM

CC(=O)O[C@@]12CO[C@@H]1C[C@H](O)[C@@]1(C)C(=O)[C@H](O)C3=C(C)[C@@H](OC(=O)[C@H](O)[C@@H](NC(=O)OC(C)(C)C)c4ccccc4)C[C@@](O)([C@@H](OC(=O)c4ccccc4)[C@H]21)C3(C)C [DOCETAXEL]
IC50 (HCT-116): 1.81 nM | IC50 (EM-2): 6.23 nM | IC50 (LNCaP-Clone-FGC): 1.1 nM | IC50 (RPMI-7951): 0.448 nM | IC50 (DOHH-2): 6.3 nM | IC50 (HCC1419): > 10 nM | IC50 (ACHN): > 10 nM | IC50 (A673): 2.35 nM | IC50 (OCI-AML2): > 10 nM | IC50 (HT-3): 2.82 nM | IC50 (NTERA-2-cl-D1): 0.773 nM | IC50 (SF-539): 0.302 nM | IC50 (CW-2): > 10 nM | IC50 (CAL-54): > 10 nM | IC50 (HEC-1): 3.03 nM | IC50 (BT-20): 3.76 nM | IC50 (KM12): 4.08 nM | IC50 (FaDu): 5.1 nM | IC50 (A204): 9.34 nM | IC50 (HO-1-N-1): 0.281 nM | IC50 (MFM-223): 6.16 nM | IC50 (ASPC1): 6.83 nM | IC50 (BFTC-909): 2.25 nM | IC50 (CAS-1): > 10 nM | IC50 (MOLT-4): 4.71 nM | IC50 (SK-NEP-1): 1.76 nM | IC50 (SK-MES-1): 2.33 nM | IC50 (no-10): 7.88 nM | IC50 (SK-MEL-1): > 10 nM | IC50 (C2BBe1): 1.82 nM | IC50 (HCC2218): > 10 nM | IC50 (GT3TKB): 0.232 nM | IC50 (D-336MG): 1.69 nM | IC50 (SK-MEL-2): 1.7 nM | IC50 (SNU-5): 5.45 nM | IC50 (HGC-27): 0.471 nM | IC50 (HuP-T3): > 10 nM | IC50 (Mo): > 10 nM | IC50 (NCI-H1693): > 10 nM | IC50 (YAPC): > 10 nM | IC50 (MDA-MB-231): 7.3 nM | IC50 (T98G): 1.17 nM | IC50 (DOK): 2.94 nM | IC50 (KGN): 2.47 nM | IC50 (VM-CUB-1): 1.05 nM | IC50 (NCI-H2087): 7.48 nM | IC50 (EW-3): 0.745 nM | IC50 (LS-123): 4.25 nM | IC50 (G-402): 0.706 nM | IC50 (8305C): 5.76 nM | IC50 (LB831-BLC): 1.48 nM | IC50 (MC116): > 10 nM
